This note sets out measurements from patent publication US9237747B2, “Herbicidal compositions comprising 4-amino-3-chloro-5-fluoro-6-(4-chloro-2-fluoro-3-methoxyphenyl) pyridine-2-carboxylic acid or a derivative thereof and insecticides” (priority 2013, dated 2016).

Molecules are shown by their SMILES. Where two headings read alike, the source gives them in different places.

The test system of one assay is BRAPP. Nature of the assay: Postemergence foliar-applied weed control, direct-seeded rice (greenhouse). Type of assay: in vivo, Brachiaria platyphylla. An excerpt:
Seeds or nutlets of the desired test plant species were planted in a soil matrix prepared by mixing a loam or sandy loam soil (e.g., 28.6 percent silt, 18.8 percent clay, and 52.6 percent sand, with a pH of about 5.8 and an organic matter content of about 1.8 percent) and calcareous grit in an 80 to 20 ratio. The soil matrix was contained in plastic pots with a volume of 1 quart and a surface area of 83.6 square centimeters (cm^2). When required to ensure good germination and healthy plants, a fungicide treatment and/or other chemical or physical treatment was applied. The plants were grown for 8-22 days in a greenhouse with an approximate 14 hour (h) photoperiod which was maintained at about 29° C. during the day and 26° C. during the night. Nutrients (Peters Excel® 15-5-15 5-Ca 2-Mg and iron chelate) were applied in the irrigation solution as needed and water was added on a regular basis. Supplemental lighting was provided with overhead metal halide 1000-Watt lamps as necessary. The plants were employed for testing when they reached the first through fourth true leaf stage.
Treatments consisted of the acid or esters of 4-amino-3-chloro-6-(4-chloro-2-fluoro-3-methoxyphenyl)-5-fluoropyridine-2-carboxylic acid (Compound A), each formulated as an SC (suspension concentrate), and various insecticidal components alone and in combination. Forms of compound A were applied on an acid equivalent basis.
Treatment requirements were calculated based upon the rates being tested, the concentration of active ingredient or acid equivalent in the formulation, and a 12 milliliter (mL) application volume at a rate of 187 liters per hectare (L/ha).
For treatments comprised of formulated compounds, measured amounts of compounds were placed individually in 25 mL glass vials and diluted in a volume of 1.25% volume per volume (v/v) Agri-Dex® crop oil concentrate to obtain 12× stock solutions. […] Application solutions were prepared by adding an appropriate amount of each stock solution (e.g., 1 mL) and diluted to the appropriate final concentrations with the addition of […] of an aqueous mixture of 1.25% (v/v) crop oil concentrate so that the final spray solutions contained 1.25+/−0.05% (v/v) crop oil concentrate.
As required, additional water and/or 97:3 v/v acetone/DMSO was added to individual application solutions so that the final acetone and DMSO concentrations of the application solutions being compared were 8.1% and 0.25%, respectively.
All stock solutions and applications solutions were visually inspected for compound compatibility prior to application. Spray solutions were applied to the plant material with an overhead Mandel track sprayer equipped with 8002E nozzles calibrated to deliver 187 L/ha over an application area of 0.503 square meters (m^2) at a spray height of 18 to 20 inches (46 to 50 cm) above average plant canopy height. Control plants were sprayed in the same manner with the solvent blank.
The treated plants and control plants were placed in a greenhouse as described above and watered by sub-irrigation to prevent wash-off of the test compounds. After approximately 3 weeks, the condition of the test plants as compared to that of the untreated plants was determined visually and scored on a scale of 0 to 100 percent where 0 corresponds to no injury or growth inhibition and 100 corresponds to complete kill.
Colby's equation was used to determine the herbicidal effects expected from the mixtures (Colby, S. R. Calculation of the synergistic and antagonistic response of herbicide combinations. Weeds 1967, 15, 20-22.).
The following equation was used to calculate the expected activity of mixtures containing two active ingredients, A and B: Expected=A+B−(A×B/100)

Another assay has as its system CYPIR. Type of assay: in vivo, Cyperus iria. Put shortly: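 Greenhouse plants at first to fourth true leaf stage were sprayed postemergence at 187 L/ha with SC-formulated Compound A (acid equivalent basis), alone or with insecticides, in 1.25% v/v crop oil concentrate. Injury was scored visually 0–100% versus untreated plants after about 3 weeks; expected mixture effects were calculated by Colby's equation.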

The subject of the next assay is SCPMA. As to the kind of experiment: In-water applied weed control, transplanted paddy rice (greenhouse). Type of assay: in vivo, Schoenoplectus maritimus. Here is the method:
Weed seeds or nutlets of the desired test plant species were planted in puddled soil (mud) prepared by mixing a shredded, non-sterilized mineral soil (50.5 percent silt, 25.5 percent clay, and 24 percent sand, with a pH of about 7.6 and an organic matter content of about 2.9 percent) and water at a 1:1 volumetric ratio. The prepared mud was dispensed in 365 mL aliquots into 16-ounce (oz.) non-perforated plastic pots with a surface area of 86.59 square centimeters (cm^2) leaving a headspace of 3 centimeters (cm) in each pot. Rice seeds were planted in Sun Gro MetroMix® 306 planting mixture, which typically has a pH of 6.0 to 6.8 and an organic matter content of about 30 percent, in plastic plug trays. Seedlings at the second or third leaf stage of growth were transplanted into 860 mL of mud contained in 32-oz. non-perforated plastic pots with a surface area of 86.59 cm^2 4 days prior to herbicide application. The paddy was created by filling the headspace of the pots with 2.5 to 3 cm of water. When required to ensure good germination and healthy plants, a fungicide treatment and/or other chemical or physical treatment was applied. The plants were grown for 4-22 days in a greenhouse with an approximate 14 h photoperiod which was maintained at about 29° C. during the day and about 26° C. during the night. Nutrients were added as Osmocote® (17:6:10, N:P:K+minor nutrients) at 2 grams (g) per 16-oz. pot and 4 g per 32-oz. pot. Water was added on a regular basis to maintain the paddy flood, and supplemental lighting was provided with overhead metal halide 1000-Watt lamps as necessary. The plants were employed for testing when they reached the first through fourth true leaf stage.
Treatments consisted of the acid or esters of 4-amino-3-chloro-5-fluoro-6-(4-chloro-2-fluoro-3-methoxy-phenyl)pyridine-2-carboxylic acid (compound A) each formulated as an SC (suspension concentrate) and various herbicidal components alone and in combination. Forms of compound A were applied on an acid equivalent basis.
Other […] components were applied on an active ingredient basis and consisted of etofenprox (technical grade material) and sulfoxaflor formulated as Sulfoxaflor WG.
Treatment requirements for each compound or herbicidal component were calculated based upon the rates being tested, the concentration of active ingredient or acid equivalent in the formulation, an application volume of 2 mL per component per pot, and an application area of 86.59 cm^2 per pot.
For formulated compounds, a measured amount was placed in an individual 100 or 200 mL glass vial and was dissolved in a volume of 1.25% (v/v) AgriDex® crop oil concentrate to obtain application solutions.
For technical grade compounds, a weighed amount was placed in an individual 100 to 200 mL glass vial and was dissolved in a volume of acetone to obtain concentrated stock solutions.
Applications were made by injecting with a pipetter appropriate amounts of the application solutions, individually and sequentially, into the aqueous layer of the paddy. Control plants were treated in the same manner with the solvent blank. Applications were made so that all treated plant material received the same concentrations of acetone and crop oil concentrate.
The treated plants and control plants were placed in a greenhouse as described above and water was added as needed to maintain a paddy flood. After approximately 3 weeks the condition of the test plants as compared with that of the untreated plants was determined visually and scored on a scale of 0 to 100 percent where 0 corresponds to no injury or growth inhibition and 100 corresponds to complete kill.
Colby's equation was used to determine the herbicidal effects expected from the mixtures (Colby, S. R. Calculation of the synergistic and antagonistic response of herbicide combinations. Weeds 1967, 15, 20-22.). […]

Consider `COc1c(Cl)ccc(-c2nc(C(=O)O)c(Cl)c(N)c2F)c1F` [Compound A Acid, 4-amino-3-chloro-6-(4-chloro-2-fluoro-3-methoxyphenyl)-5-fluoropyridine-2-carboxylic acid], for which the “Visual Weed Control (%) - 20 DAA BRAPP Obs” value in the assay on BRAPP (4.38 g ae/ha alone) was 70%. Besides, the “Visual Weed Control (%) - 20 DAA CYPIR Obs” value with CYPIR (4.38 g ae/ha alone) was 30%. Moreover, the “Visual Weed Control (%) - 21 DAA SCPMA Obs” value in the assay on SCPMA (4.38 g ae/ha alone) and with SCPMA (8.75 g ae/ha alone) was 0% each time.
On to `COc1c(Cl)ccc(-c2nc(C(=O)OCc3ccccc3)c(Cl)c(N)c2F)c1F` [Compound A Benzyl Ester], for which the “Visual Weed Control (%) - 20 DAA BRAPP Obs” value in the assay on BRAPP (4.38 g ae/ha alone) is reported as 75%; in the assay with BRAPP (8 g ae/ha alone), 55%; in the assay on BRAPP (8.75 g ae/ha alone), 75%; with BRAPP (17.5 g ae/ha alone) it was 95%. The “Visual Weed Control (%) - 21 DAA BRAPP Obs” value with BRAPP (8 g ae/ha alone) is 70%. Besides, in the assay on CYPIR (4.38 g ae/ha alone), the “Visual Weed Control (%) - 22 DAA CYPIR Obs” value was determined as 70%. Further, the “Visual Weed Control (%) - 21 DAA CYPIR Obs” value with CYPIR (8 g ae/ha alone) was 50%; in the assay on CYPIR (21 DAA, 8 g ae/ha alone), 50%. Moreover, the “Visual Weed Control (%) - 21 DAA SCPMA Obs” value is given as 0% in the assay with SCPMA (21 DAA, 4.38 g ae/ha alone); 0% in the assay on SCPMA (21 DAA, 8.75 g ae/ha alone); 0% in the assay on SCPMA (21 DAA, 17.5 g ae/ha alone).
`CC(c1ccc(C(F)(F)F)nc1)S(C)(=O)=NC#N` (stereo not shown) [Sulfoxaflor, N-[methyloxido[1-[6-(trifluoromethyl)-3-pyridinyl]ethyl]-λ^4-sulfanylidene]cyanamide]: the “Visual Weed Control (%) - 21 DAA CYPIR Obs” value with CYPIR (21 DAA, 75 g ai/ha alone) amounted to 0%; in the assay with CYPIR (21 DAA, 150 g ai/ha alone), 0%. In addition, the “Visual Weed Control (%) - 21 DAA SCPMA Obs” value came to 0% in the assay with SCPMA (21 DAA, 50 g ai/ha alone) and 0% with SCPMA (50 g ai/ha alone).
